Columns and labels:
KG-1 cells = assay: Annexin V / Propidium Iodide flow cytometry apoptosis assay in KG-1; assay type: cell-based; parameters: key to Excess over HSA / Excess over BLISS: excess in % apoptotic (Annexin V/PI double-labeled) cells over HSA/Bliss; details: for Excess over BLISS / Excess over HSA: imetelstat sodium μM: r7 50, r8 25, r9 10, r10 0
Experimental: (§1) AML tumor cells KG-1 (ATCC #CCL-246) and MOLM-13 (DSMZ #ACC554) were plated at a density of ˜20,000 cells per well on 96-well polystyrene U-bottom tissue culture plates (Corning catalog #353777) in RPMI-1640 (ThermoFisher catalog #11875-085) supplemented with 10% fetal bovine serum (ThermoFisher catalog #16140-089) and 1% penicillin/streptomycin antibiotic cocktail (ThermoFisher catalog 15140-122) and grown in a 37° C. incubator under humidified 5% CO2 atmosphere.
(§2) At 48 and 96 hours, cells were measured for healthy, early apoptotic and apoptotic populations with an Annexin V (interior cell membrane stain) plus Propidium Iodide (PI, DNA binding dye) flow cytometry assay kit (BioLegend catalog 640914). Annexin V detects the externalization of phosphatidylserine in apoptotic cells using recombinant annexin V conjugated to green-fluorescent FITC dye and dead cells using Propidium iodide (PI). Propidium iodide stains necrotic cells with red fluorescence. After treatment with both probes, early apoptotic cells show green fluorescence, apoptotic (dead) cells show red and green fluorescence, and live cells show little or no fluorescence. […] Cells were stained for 30 minutes at 4° C. in the dark, followed by 3× washes with PBS and suspension in FACs Stain Buffer (BD catalog 554657) prior to interrogation on a BD FACs Canto flow cytometer for forward scatter, side scatter, FITC, and PE channels. […] The percentage of apoptotic cells (double labeled) was used to calculate combination effects using both the Highest Single Agent (HSA) and Bliss additivity models (J Tang et al. Frontiers in Pharmacology. 2015; 6 (181)).
(§3) Using the HSA model, the cytotoxic effect of the combined condition (“C”) was compared to the effect generated by each of the single agent controls (“A” or “B”) for the respective dose in the combination: Excess over HSA=C−A (if A>B) or C−B (if A<B)
(§4) The Bliss model performs a similar comparison, but instead of the highest effect of single agent, the Bliss model subtracts from the combination a value equal to the sum of each single agent minus their product: Excess over Bliss=C−[(A+B)−(A*B)]

MOLM-13 cells = assay: Annexin V / Propidium Iodide flow cytometry apoptosis assay in MOLM-13; assay type: cell-based; parameters: key to Excess over HSA / Excess over BLISS: excess = combination minus HSA/Bliss expected, in % apoptotic cells; details: for Excess over BLISS / Excess over HSA: imetelstat sodium μM: r7 50, r8 25, r9 10, r10 0
Experimental: as §1, §2, §3, §4
Treated cells were analyzed by Flow cytometry for Annexin V and Propidium Iodide staining as described previously. Events gated in the apoptotic population (Annexin V+/Propidium Iodide+) were used to determine synergy scores for the combination matrix. Combination data analysis was generated by the Horizon Chalice™ Analyzer Software (Horizon Discovery Group, Cambridge, UK). […] Mismatch and non-complimentary controls were not utilized in this experiment.
Combination conditions undergo isobolar analysis to generate a combination index and graphically represent the behavior of a combination with synergistic pairs falling below the isobologram and antagonistic falling above it (additive combinations would be expected to fall on the line). The Horizon Chalice™ Analyzer Software additionally provides a synergy score, with values greater than 1 indicating synergy.

[1] = MOLM-13, 48 hours, ABT-199 1 nM
[2] = MOLM-13, 48 hours, ABT-199 5 nM
[3] = MOLM-13, 48 hours, ABT-199 20 nM
[4] = MOLM-13, 48 hours, ABT-199 100 nM
[5] = MOLM-13, 48 hours, ABT-199 500 nM
[6] = MOLM-13, 96 hours, ABT-199 1 nM
[7] = MOLM-13, 96 hours, ABT-199 5 nM
[8] = MOLM-13, 96 hours, ABT-199 20 nM
[9] = MOLM-13, 96 hours, ABT-199 100 nM
[10] = MOLM-13, 96 hours, ABT-199 500 nM

## CC1(C)CCC(CN2CCN(c3ccc(C(=O)NS(=O)(=O)c4ccc(NCC5CCOCC5)c([N+](=O)[O-])c4)c(Oc4cnc5[nH]ccc5c4)c3)CC2)=C(c2ccc(Cl)cc2)C1 [ABT-199, 4-[4-[[2-(4-chlorophenyl)-4,4-dimethylcyclohexen-1-yl]methyl]piperazin-1-yl]-N-[3-nitro-4-(oxan-4-ylmethylamino)phenyl]sulfonyl-2-(1H-pyrrolo [2,3-b]pyridin-5-yloxy)benzamide]
KG-1 cells; KG-1, 48 hours (title of Table 6), ABT-199 1 nM
  Excess over BLISS: 0
KG-1 cells; KG-1, 48 hours (title of Table 6), ABT-199 5 nM
  Excess over BLISS: 0
KG-1 cells; KG-1, 48 hours (title of Table 6), ABT-199 20 nM
  Excess over BLISS: 0
KG-1 cells; KG-1, 48 hours (title of Table 6), ABT-199 100 nM
  Excess over BLISS: 0
KG-1 cells; KG-1, 48 hours (title of Table 6), ABT-199 500 nM
  Excess over BLISS: 0
KG-1 cells; KG-1, 48 hours, ABT-199 1 nM
  Excess over BLISS: 0
  Excess over HSA: 0
KG-1 cells; KG-1, 48 hours, ABT-199 5 nM
  Excess over BLISS: 0
  Excess over HSA: 0
KG-1 cells; KG-1, 48 hours, ABT-199 20 nM
  Excess over BLISS: 0
  Excess over HSA: 0
KG-1 cells; KG-1, 48 hours, ABT-199 100 nM
  % apoptotic cells (double label): ~9%
  Excess over BLISS: 0
  Excess over HSA: 0
KG-1 cells; KG-1, 48 hours, ABT-199 500 nM
  % apoptotic cells (double label): ~14%
  Excess over BLISS: 0
  Excess over HSA: 0
KG-1 cells; KG-1, 96 hours, ABT-199 1 nM
  Excess over HSA: 0
KG-1 cells; KG-1, 96 hours, ABT-199 5 nM
  Excess over HSA: 0
KG-1 cells; KG-1, 96 hours, ABT-199 20 nM
  Excess over HSA: 0
KG-1 cells; KG-1, 96 hours, ABT-199 100 nM
  % apoptotic cells (double label): ~6%
  Excess over HSA: 0
KG-1 cells; KG-1, 96 hours, ABT-199 500 nM
  % apoptotic cells (double label): ~10%
  Excess over HSA: 0
MOLM-13 cells; [1]
  Excess over BLISS: 0
  Excess over HSA: 0
MOLM-13 cells; [2]
  Excess over BLISS: 0
  Excess over HSA: 0
MOLM-13 cells; [3]
  Excess over BLISS: 0
  Excess over HSA: 0
MOLM-13 cells; [4]
  % apoptotic cells (double label): ~19%
  Excess over BLISS: 0
  Excess over HSA: 0
MOLM-13 cells; [5]
  % apoptotic cells (double label): ~30%
  Excess over BLISS: 0
  Excess over HSA: 0
MOLM-13 cells; [6]
  Excess over BLISS: 0
  Excess over HSA: 0
MOLM-13 cells; [7]
  Excess over BLISS: 0
  Excess over HSA: 0
MOLM-13 cells; [8]
  Excess over BLISS: 0
  Excess over HSA: 0
MOLM-13 cells; [9]
  Excess over BLISS: 0
  Excess over HSA: 0
MOLM-13 cells; [10]
  Excess over BLISS: 0
  Excess over HSA: 0
MOLM-13 cells; MOLM-13, 96 hours, ABT-199 at 5, 20, 100 and 500 nM
  cell death: > 30%
MOLM-13 cells; MOLM-13, after 48 hours, concentrations not given
  apoptotic activity: 30%
